In general, IC50 refers to the concentration needed to halve the response being measured.

Results on 9 compounds are retold here after publication PMC9531272, “Xanthine oxidase inhibitory study of eight structurally diverse phenolic compounds” (Frontiers in Nutrition, 2022).

One test has as its system XO. The note with it: cited from earlier work; for IC50: read-out: IC50 against XO.
Test [1] concerns the target T1, Xanthine oxidase (XO) (Bos taurus, UniProt P80457).
T1 construct: purchased Sigma-Aldrich (Shanghai, P. R. China)
The test is described as follows: Determination of inhibition type (Line-weaver Burk plot). The class given is biochemical. The note with it: Line-weaver Burk plot analysis toward XO.

Test [2] deals with T1, Xanthine oxidase (XO). Description: XO inhibitory activity of phenolic compounds (absorbance at 292 nm). The class given is biochemical. The conditions noted are these: XO 0.1 U/ml, 37°C, 15 min preincubation; mean ± SD.

SMILES strings stand for the structures. Read-outs that look alike come from different tables or passages of the source. Bounds are passed on as bounds.

T1 sequence (P80457 whole entry): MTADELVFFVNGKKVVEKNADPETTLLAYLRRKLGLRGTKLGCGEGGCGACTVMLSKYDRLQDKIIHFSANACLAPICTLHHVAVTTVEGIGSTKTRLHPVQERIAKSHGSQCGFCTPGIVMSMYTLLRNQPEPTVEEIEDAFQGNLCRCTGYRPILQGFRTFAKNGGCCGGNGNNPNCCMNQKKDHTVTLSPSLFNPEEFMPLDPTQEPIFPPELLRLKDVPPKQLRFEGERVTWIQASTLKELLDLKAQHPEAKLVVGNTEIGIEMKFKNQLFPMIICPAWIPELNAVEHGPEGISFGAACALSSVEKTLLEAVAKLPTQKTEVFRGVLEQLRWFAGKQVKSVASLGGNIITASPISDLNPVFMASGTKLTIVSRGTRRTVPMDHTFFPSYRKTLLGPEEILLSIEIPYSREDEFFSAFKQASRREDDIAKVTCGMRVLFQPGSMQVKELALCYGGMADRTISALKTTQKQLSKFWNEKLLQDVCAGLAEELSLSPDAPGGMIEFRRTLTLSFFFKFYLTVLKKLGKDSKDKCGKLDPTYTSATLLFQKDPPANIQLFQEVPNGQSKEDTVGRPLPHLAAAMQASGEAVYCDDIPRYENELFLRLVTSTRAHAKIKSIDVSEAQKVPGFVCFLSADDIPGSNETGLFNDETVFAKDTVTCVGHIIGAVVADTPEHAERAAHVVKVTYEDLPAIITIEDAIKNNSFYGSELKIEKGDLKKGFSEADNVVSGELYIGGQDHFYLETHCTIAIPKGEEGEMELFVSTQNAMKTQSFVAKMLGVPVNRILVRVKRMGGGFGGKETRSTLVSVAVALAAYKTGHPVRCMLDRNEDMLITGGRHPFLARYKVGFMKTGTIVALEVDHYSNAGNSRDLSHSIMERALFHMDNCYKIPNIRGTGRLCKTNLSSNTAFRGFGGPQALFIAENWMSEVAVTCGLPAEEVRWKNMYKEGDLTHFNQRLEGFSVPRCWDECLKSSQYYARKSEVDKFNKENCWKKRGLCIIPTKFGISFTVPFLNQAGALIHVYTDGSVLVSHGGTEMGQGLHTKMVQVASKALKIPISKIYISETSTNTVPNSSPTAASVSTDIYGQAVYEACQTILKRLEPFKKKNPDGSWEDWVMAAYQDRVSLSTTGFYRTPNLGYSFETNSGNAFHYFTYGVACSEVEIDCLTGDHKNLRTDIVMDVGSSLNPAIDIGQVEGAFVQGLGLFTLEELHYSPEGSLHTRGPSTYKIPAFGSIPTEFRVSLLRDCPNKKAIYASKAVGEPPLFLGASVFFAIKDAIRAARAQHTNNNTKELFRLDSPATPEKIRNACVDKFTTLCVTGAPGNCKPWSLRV

Turning to `Oc1ncnc2[nH]ncc12` [Allopurinol, allopurinol, reference compound], in the test with XO (ref Wang et al. ([28])), the IC50 was 6.96 µM.
`O=c1c(O)c(-c2ccc(O)c(O)c2)oc2cc(O)cc(O)c12` [C1, quercetin]: the Inhibition type result on Xanthine oxidase (XO) [1] is recorded as “Mixed”.
In turn, `C[C@@H]1O[C@@H](Oc2c(-c3ccc(O)c(O)c3)oc3cc(O)cc(O)c3c2=O)[C@H](O)[C@H](O)[C@H]1O` [C2, quercetin-3-rhamnoside] came in with an IC50 against Xanthine oxidase (XO) [2] of 12.1 ± 0.65 µM. Also, the Inhibition type result on Xanthine oxidase (XO) [1] is “Competitive”.
For `O=C(/C=C/c1ccc(O)c(O)c1)O[C@@H]1[C@H](O)C[C@@](O)(C(=O)O)C[C@H]1OC(=O)/C=C/c1ccc(O)c(O)c1` [C3, 4,5-O-dicaffeoylquinic acid] the same measures were 26.7 ± 1.2 µM and “Mixed”.
For `O=C(/C=C/c1ccc(O)c(O)c1)O[C@@H]1CC(O)(C(=O)O)C[C@@H](OC(=O)/C=C/c2ccc(O)c(O)c2)C1O` (some centres unmarked) [C4, 3,5-O-dicaffeoylquinic acid] the same measures were 28.9 ± 1.02 µM and “Competitive”.
For `O=C(/C=C/c1ccc(O)c(O)c1)O[C@H]1[C@H](O)C[C@](O)(C(=O)O)C[C@H]1OC(=O)/C=C/c1ccc(O)c(O)c1` [C5, 3,4-O-di-caffeoylquinic acid] the same measures were 44.6 ± 1.65 µM and “Competitive”.
As to `O=C(/C=C/c1ccc(O)c(O)c1)O[C@H]1[C@H](O)C[C@](O)(C(=O)O)C[C@H]1O` [C6, 4-O-caffeoylquinic acid], the IC50 against Xanthine oxidase (XO) [2] amounted to 70.2 ± 2.25 µM. The Inhibition type entry at Xanthine oxidase (XO) [1] is recorded as “Competitive”.
In turn, `O=C(/C=C/c1ccc(O)c(O)c1)O[C@@H]1C[C@](O)(C(=O)O)C[C@@H](O)[C@H]1O` [C7, 3-O-caffeoylquinic acid] had an IC50 against Xanthine oxidase (XO) [2] of 80.9 ± 3.06 µM. In addition, the Inhibition type result on Xanthine oxidase (XO) [1] is “Competitive”.
For `O=C(O)/C=C/c1ccc(O)c(O)c1` [C8, caffeic acid], the IC50 against Xanthine oxidase (XO) [2] is 95.6 ± 3.28 µM; with XO (ref Chan et al. ([31])) it was over 50 µM; in the test on XO (ref Nguyen et al. ([33])), 85.3 µM; in the test on XO (ref Wang et al. ([28])), 53.5 µM; in the test with XO (ref Wang et al. ([30])) it was 65.6 ± 2.71 µM. Besides, the XO inhibition in the test with XO (at 125 μM concentration, ref Song et al. ([29])) is reported as 5.74 ± 2.64%.
